Drawing on patent US9879024B2, “Crystal forms of (R)-N-methylnaltrexone bromide and uses thereof” (Progenics Pharmaceuticals, Inc., priority 2007, dated 2018), this text covers solubility and water solubility for 2 compounds.

Holding throughout (type): physicochemical
Data set [1] in a line: Equilibrium solubility of Form A at room temperature in solvents and aqueous buffers. The following applies: thermodynamic from solid, read-out: Solubility at R.T. The procedure: In each case, the equilibrium solubility of Form A at room temperature was measured by placing the compound in excess into different solvents and stirring overnight at ambient room temperature, protected from light. Solubility in the following solvents and aqueous buffers was evaluated at room temperature: methanol, ethanol, benzyl alcohol, dimethyl sulfoxide, water for injection, bacteriostatic water (containing 0.9% benzyl alcohol), 5% dextrose, normal saline (0.9% NaCl), pH 1.1 (glycine HCl), pH 4.2 (glycine HCl), pH 7.1 (phosphate buffer), and pH 9.1 (glycine). Solubilities are reported to the nearest mg/mL unless otherwise stated.

The nature of data set [2]: Solubility of Form A at 37° C. under conditions that simulate the human GI tract (HPLC of filtrate). The following applies: thermodynamic from solid, 37° C. overnight. The procedure:
[…] All solutions were stored overnight in a 37° C. oven, and then filtered through a Whatman 0.45 μm nylon syringe filter to remove insoluble material.

A short description of data set [3]: Water solubility of amorphous Compound 1. The following applies: qualitative statement, no data given.

Broadly, the solubility is the concentration that dissolves in the medium under given conditions.

Each structure is given as a SMILES string. Where only a bound is given, the exact number is not on record here.

As for `C[N+]1(CC2CC2)CC[C@]23c4c5ccc(O)c4O[C@H]2C(=O)CC[C@@]3(O)[C@H]1C5.[Br-]` (stereo partly drawn) [Form A, (R)-N-methylnaltrexone bromide], the solubility in data set [1] (aqueous buffer, pH 4.2 (glycine HCl buffer)) was 73.8 mg/mL; in data set [1] (aqueous buffer, pH 7.1 (phosphate buffer)) it was 74.9 mg/mL; in data set [1] (aqueous buffer, pH 9.1 (glycine buffer)), 71.1 mg/mL; in data set [1] (dimethyl sulfoxide, organic solvent or mixture, Dimethylsulfoxide, stirred overnight), over 170 mg/mL; in data set [1] (organic solvent or mixture, Benzyl alcohol, stirred overnight), 85.5 mg/mL; in data set [1] (organic solvent or mixture, Ethanol, stirred overnight), 6.1 mg/mL. The solubility in data set [1] (organic solvent or mixture, Methanol, stirred overnight) was 2.5 mg/mL; in data set [1] (saline or isotonic, 5% Dextrose, stirred overnight), 61.3 mg/mL; in data set [1] (saline or isotonic, Normal saline (0.9% NaCl), stirred overnight), 59.7 mg/mL; in data set [1] (simulated gastric fluid, 0.1N HCl), 76.6 mg/mL; in data set [1] (simulated gastric fluid, pH 1.1 (glycine HCl buffer)), 70.1 mg/mL; in data set [1] (Bacteriostatic water (0.9% benzyl alcohol), stirred overnight) it was 86.5 mg/mL. The solubility in data set [1] (Water for injection, stirred overnight) was 73.5 mg/mL; in data set [2] (aqueous buffer, pH 4.5 (acetate buffer)), 100 mg/mL; in data set [2] (aqueous buffer, pH 6.8 (phosphate buffer)), 101 mg/mL; in data set [2] (aqueous buffer, pH 9.0 (borate buffer)), 101 mg/mL; in data set [2] (pH 1, simulated gastric fluid, 0.1N HCl), 101 mg/mL.

Take `C[N+]1(CC2CC2)CC[C@]23c4c5ccc(O)c4O[C@H]2C(=O)CC[C@@]3(O)[C@H]1C5.[Br-]` (stereo partly drawn) [amorphous Compound 1, (R)-N-methylnaltrexone bromide]: the water solubility result in data set [3] is “enhanced water solubility”.
